Results as given in patent publication US9440982B2 (Eolas Therapeutics, Inc., priority 2012, dated 2016).

Tests used:
OX1 = biological target: T1, OX1 (Homo sapiens, UniProt O43613); assay: Orexin receptor cell-based functional assay, [Ca2+]i by FLIPR, CHO-OX1 cells; conditions: CHO-OX1 cells, [Ca2+]i by FLIPR, antagonist dose-range 0.1 nM-10 μM, EC90 of OXA; read-out: OX1
T1 construct: expressed in transfected cells; host or cells: CHO (CHO-OX1, kept under selection antibiotic)
T1 sequence (O43613 1-425): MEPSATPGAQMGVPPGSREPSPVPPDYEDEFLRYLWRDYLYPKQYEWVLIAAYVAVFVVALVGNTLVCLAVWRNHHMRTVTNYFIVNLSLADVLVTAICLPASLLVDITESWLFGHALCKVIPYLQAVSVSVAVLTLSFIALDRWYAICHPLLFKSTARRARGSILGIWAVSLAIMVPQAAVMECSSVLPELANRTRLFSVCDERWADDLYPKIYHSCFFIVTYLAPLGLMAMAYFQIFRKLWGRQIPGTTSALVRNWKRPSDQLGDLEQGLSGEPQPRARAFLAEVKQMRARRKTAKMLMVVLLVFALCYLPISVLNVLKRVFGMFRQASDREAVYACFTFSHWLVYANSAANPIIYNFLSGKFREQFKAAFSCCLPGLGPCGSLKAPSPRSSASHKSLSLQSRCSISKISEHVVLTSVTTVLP
Outline: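 Antagonist mode FLIPR calcium read in CHO-OX1 and CHO-OX2 lines. Test compounds, dosed 0.1 nM-10 μM, preincubated 30 min after 37° C dye loading with 2.5 mM probenecid (calcium4 for 30 min or calcium6 for 2 h).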

CYP3A4 = biological target: T2, CYP3A4 (Homo sapiens, UniProt P08684); assay: Cytochrome P450 inhibition assay (midazolam hydroxylation); format: in vitro ADME; conditions: human, human liver microsomes, probe midazolam (hydroxylation to 1′-hydroxymidazolam), 10 μM test compound, midazolam at approximately its Km
T2 construct: pre-incubated with human liver microsomes and NADPH; from tissue; host or cells: human liver microsomes
Outline: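 Percent inhibition of midazolam 1′-hydroxylation by 10 μM compound was measured, midazolam dosed at about Km. Time-dependent inhibition was probed by a 30 min preincubation of compound with human liver microsomes and NADPH ahead of substrate, compared against samples without preincubation.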

T2 sequence (P08684 whole entry): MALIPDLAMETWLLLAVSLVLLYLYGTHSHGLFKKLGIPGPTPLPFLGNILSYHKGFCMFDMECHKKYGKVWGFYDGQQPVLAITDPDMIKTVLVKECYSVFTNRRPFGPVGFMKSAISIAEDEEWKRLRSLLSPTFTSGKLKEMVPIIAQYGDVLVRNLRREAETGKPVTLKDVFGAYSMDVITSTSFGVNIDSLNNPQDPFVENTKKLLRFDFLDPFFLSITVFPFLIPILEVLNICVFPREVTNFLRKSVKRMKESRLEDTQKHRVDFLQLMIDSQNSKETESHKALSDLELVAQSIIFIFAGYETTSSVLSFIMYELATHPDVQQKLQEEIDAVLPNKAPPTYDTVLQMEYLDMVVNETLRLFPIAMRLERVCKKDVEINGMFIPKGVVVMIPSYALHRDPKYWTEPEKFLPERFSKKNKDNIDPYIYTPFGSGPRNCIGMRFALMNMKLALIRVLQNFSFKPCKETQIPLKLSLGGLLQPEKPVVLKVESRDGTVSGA

Structure (SMILES)	IC50 (OX1)	inhibition at 10 µM (CYP3A4)
Cc1ccc(-c2ncccn2)c(C(=O)N2CCC[C@@H](C)[C@H]2CNc2ccc(C(F)(F)F)nn2)c1 [Example A137, ((2S,3R)-3-Methyl-2-(((6-(trifluoromethyl)pyridazin-3-yl)amino)methyl)piperidin-1-yl)(5-methyl-2-(pyrimidin-2-yl)phenyl)methanone]	31 nM	47%
Cc1ccc(-c2ncccn2)c(C(=O)N2CCC[C@@H](C)[C@H]2CNc2ccc(C#N)cn2)c1 [Example A139, 6-((((2S,3R)-3-Methyl-1-(5-methyl-2-(pyrimidin-2-yl)benzoyl)piperidin-2-yl)methyl)amino)nicotinonitrile]	140 nM	41%
Cc1ccc(-n2ncc(C)n2)c(C(=O)N2CCC[C@@H](C)[C@H]2CNc2ccc(F)cn2)c1 [Example A142, ((2S,3R)-2-(((5-Fluoropyridin-2-yl)amino)methyl)-3-methylpiperidin-1-yl)(5-methyl-2-(4-methyl-2H-1,2,3-triazol-2-yl)phenyl)methanone]	51 nM	74%
Cc1ccc(NC[C@@H]2[C@H](C)CCCN2C(=O)c2cc(C)ccc2-c2ncccn2)nc1 [Example A143, ((2S,3R)-3-Methyl-2-(((5-methylpyridin-2-yl)amino)methyl)piperidin-1-yl)(5-methyl-2-(pyrimidin-2-yl)phenyl)methanone]	26 nM	75%
Cc1ccc(-n2nccn2)c(C(=O)N2CCC[C@@H](C)[C@H]2CNc2ccc(C#N)nn2)c1 [Example A145, 6-((((2S,3R)-3-Methyl-1-(5-methyl-2-(2H-1,2,3-triazol-2-yl)benzoyl)piperidin-2-yl)methyl)amino)pyridazine-3-carbonitrile]	> 1000 nM	48%
Cc1ccc(-n2nccn2)c(C(=O)N2CCC[C@@H](C)[C@H]2CNc2ccc(C)nn2)c1 [Example A146, ((2S,3R)-3-Methyl-2-(((6-methylpyridazin-3-yl)amino)methyl)piperidin-1-yl)(5-methyl-2-(2H-1,2,3-triazol-2-yl)phenyl)methanone]	> 1000 nM	29%
Cc1ccc(-n2nccn2)c(C(=O)N2CCC[C@@H](C)[C@H]2CNc2ncc(C#N)cc2F)c1 [Example A148, 5-Fluoro-6-((((2S,3R)-3-methyl-1-(5-methyl-2-(2H-1,2,3-triazol-2-yl)benzoyl)piperidin-2-yl)methyl)amino)nicotinonitrile]	83 nM	81%
Cc1ccc(-c2ccccn2)c(C(=O)N2CCC[C@@H](C)[C@H]2CNc2ccc(C(F)(F)F)nn2)c1 [Example A150, ((2S,3R)-3-Methyl-2-(((6-(trifluoromethyl)pyridazin-3-yl)amino)methyl)piperidin-1-yl) (5-methyl-2-(pyridin-2-yl)phenyl)methanone]	130 nM	74%
Cc1ccc(-c2ccccn2)c(C(=O)N2CCC[C@@H](C)[C@H]2CNc2ncc(C#N)cn2)c1 [Example A153, 2-((((2S,3R)-3-Methyl-1-(5-methyl-2-(pyridin-2-yl)benzoyl)piperidin-2-yl)methyl)amino)pyrimidine-5-carbonitrile]	140 nM	66%
Cc1ccc(-n2cccn2)c(C(=O)N2CCC[C@@H](C)[C@H]2CNc2ccc(C)nn2)c1 [Example A154, ((2S,3R)-3-Methyl-2-(((6-methylpyridazin-3-yl)amino)methyl)piperidin-1-yl)(5-methyl-2-(1H-pyrazol-1-yl)phenyl)methanone]	> 1000 nM	43%
Cc1ccc(-n2cccn2)c(C(=O)N2CCC[C@@H](C)[C@H]2CNc2ccc(C#N)nn2)c1 [Example A156, 6-((((2S,3R)-3-Methyl-1-(5-methyl-2-(1H-pyrazol-1-yl)benzoyl)piperidin-2-yl)methyl)amino)pyridazine-3-carbonitrile]	> 1000 nM	53%
Cc1ccc(-n2cccn2)c(C(=O)N2CCC[C@@H](C)[C@H]2CNc2ccc(C(F)(F)F)nn2)c1 [Example A157, ((2S,3R)-3-mMethyl-2-(((6-(trifluoromethyl)pyridazin-3-yl)amino)methyl)piperidin-1-yl)(5-methyl-2-(1H-pyrazol-1-yl)phenyl)methanone]	110 nM	77%
Cc1ccc(-c2ccc(C(F)(F)F)cn2)c(C(=O)N2CCC[C@@H](C)[C@H]2CNc2ccc(Cl)cn2)c1 [Example A158, ((2S,3R)-2-(((5-Chloropyridin-2-yl)amino)methyl)-3-methylpiperidin-1-yl)(5-methyl-2-(5-(trifluoromethyl)pyridin-2-yl)phenyl)methanone]	220 nM	83%
Cc1ccc(-c2ccc(F)cn2)c(C(=O)N2CCC[C@@H](C)[C@H]2CNc2ccc(Cl)cn2)c1 [Example A159, ((2S,3R)-2-(((5-Chloropyridin-2-yl)amino)methyl)-3-methylpiperidin-1-yl)(2-(5-fluoropyridin-2-yl)-5-methylphenyl)methanone]	170 nM	88%

The next molecules have a lower IC50 (OX1) than those just listed; values first:

IC50 (OX1)	inhibition at 10 µM (CYP3A4)	Structure (SMILES)
21 nM	80%	Cc1ccc(-n2ncc(C)n2)c(C(=O)N2CCC[C@@H](C)[C@H]2CNc2nnc(C(F)(F)F)s2)c1 [Example A135, ((2S,3R)-3-Methyl-2-(((5-(trifluoromethyl)-1,3,4-thiadiazol-2-yl)amino)methyl)piperidin-1-yl)(5-methyl-2-(4-methyl-2H-1,2,3-triazol-2-yl)phenyl)methanone]
15 nM	76%	C[C@@H]1CCCN(C(=O)c2cc(Cl)ccc2-n2nccn2)[C@@H]1CNc1ccc(C(F)(F)F)nn1 [Example A162, (5-Chloro-2-(2H-1,2,3-triazol-2-yl)phenyl)((2S,3R)-3-methyl-2-(((6-(trifluoromethyl)pyridazin-3-yl)amino)methyl)piperidin-1-yl)methanone]
13 nM	64%	Cc1ccc(-n2nccn2)c(C(=O)N2CCC[C@@H](C)[C@H]2CNc2ccc(C3(C#N)CC3)cn2)c1 [Example A140, 1-(6-((((2S,3R)-3-Methyl-1-(5-methyl-2-(2H-1,2,3-triazol-2-yl)benzoyl)piperidin-2-yl)methyl)amino)pyridin-3-yl)cyclopropanecarbonitrile]
13 nM	68%	C[C@@H]1CCCN(C(=O)c2cc(Cl)ccc2-n2nccn2)[C@@H]1CNc1ccc(Cl)cn1 [Example A161]
12 nM	75%	Cc1ccc(-c2ncccn2)c(C(=O)N2CCC[C@@H](C)[C@H]2CNc2ccc(Cl)cn2)c1 [Example A138, ((2S,3R)-2-(((5-Chloropyridin-2-yl)amino)methyl)-3-methylpiperidin-1-yl)(5-methyl-2-(pyrimidin-2-yl)phenyl)methanone]
8 nM	44%	Cc1ccc(-n2cccn2)c(C(=O)N2CCC[C@@H](C)[C@H]2CNc2ncc(C(F)(F)F)cn2)n1 [Example A166, ((2S,3R)-3-Methyl-2-(((5-(trifluoromethyl)pyrimidin-2-yl)amino)methyl)piperidin-1-yl)(6-methyl-3-(1H-pyrazol-1-yl)pyridin-2-yl)methanone]
5 nM	45%	Cc1ccc(-c2ccccn2)c(C(=O)N2CCC[C@@H](C)[C@H]2CNc2ncc(C(F)(F)F)cn2)n1 [Example A167, ((2S,3R)-3-Methyl-2-(((5-(trifluoromethyl)pyrimidin-2-yl)amino)methyl)piperidin-1-yl)(6′-methyl-[2,3′-bipyridin]-2′-yl)methanone]
4 nM	86%	Cc1ccc(-c2ccccn2)c(C(=O)N2CCC[C@@H](C)[C@H]2CNc2ncc(C(F)(F)F)cn2)c1 [Example A152, ((2S,3R)-3-Methyl-2-(((5-(trifluoromethyl)pyrimidin-2-yl)amino)methyl)piperidin-1-yl) (5-methyl-2-(pyridin-2-yl)phenyl)methanone]
3 nM	60%	Cc1ccc(-n2nccn2)c(C(=O)N2CCC[C@@H](C)[C@H]2CNc2ncc(C(F)(F)F)cn2)c1 [Example A149, ((2S,3R)-3-Methyl-2-(((5-(trifluoromethyl)pyrimidin-2-yl)amino)methyl)piperidin-1-yl)(5-methyl-2-(2H-1,2,3-triazol-2-yl)phenyl)methanone]
1 nM	59%	C[C@@H]1CCCN(C(=O)c2cc(Cl)ccc2-n2nccn2)[C@@H]1CNc1ncc(C(F)(F)F)cn1 [Example A160, (5-Chloro-2-(2H-1,2,3-triazol-2-yl)phenyl)((2S,3R)-3-methyl-2-(((5-(trifluoromethyl)pyrimidin-2-yl)amino)methyl)piperidin-1-yl)methanone]
